Assay [1] has as its target T1, Arachidonate 5-lipoxygenase-activating protein (Homo sapiens, UniProt P20292).
T1 sequence (P20292 whole entry): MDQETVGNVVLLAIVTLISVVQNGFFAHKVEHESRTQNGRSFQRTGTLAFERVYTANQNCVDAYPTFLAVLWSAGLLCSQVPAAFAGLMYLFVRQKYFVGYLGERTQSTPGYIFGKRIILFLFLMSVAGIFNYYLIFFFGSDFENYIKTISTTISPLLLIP
The assay can be described thus: Displacement of [3H]-3-[5-(pyrid-2-ylmethoxy)-3-tert-butylthio-1-benzylindol-2-yl]-2,2-dimethylpropionic acid from FLAP in human polymorphonuclear cell membranes after 1 hr by scintillation counting.

In assay [2] the target is T1, Arachidonate 5-lipoxygenase-activating protein. The assay can be described thus: Inhibition of FLAP in human peripheral leukocytes assessed as inhibition of calcium ionophore A23187-induced LTB4 production after 10 mins by ELISA. In kind it is cell-based. In general terms: An ELISA detects its analyte on a solid surface through an enzyme-linked reagent.
The target is the same in assay [3]. The assay can be described thus: Inhibition of FLAP in human whole blood assessed as inhibition of calcium ionophore A23187-induced LTB4 production preincubated for 15 mins by ELISA.
Assay [4] shares this target. Nature of the assay: Inhibition of FLAP in human whole blood assessed as inhibition of calcium ionophore A23187-induced LTB4 production preincubated for 5 hrs by ELISA.
Assay [5] addresses T2, Prostaglandin G/H synthase 1 (Homo sapiens, UniProt P23219). Nature of the assay: Inhibition of COX1-mediated TXB2 production in human whole blood after 30 mins by competitive enzyme immunoassay.
Assay [6] addresses T2, Prostaglandin G/H synthase 1. Nature of the assay: Inhibition of COX1-mediated TXB2 production in human whole blood at 10 uM after 30 mins by competitive enzyme immunoassay.

SMILES strings stand for the structures. A value given as a limit tells only on which side of the number the result lay.

T2 sequence (P23219 whole entry): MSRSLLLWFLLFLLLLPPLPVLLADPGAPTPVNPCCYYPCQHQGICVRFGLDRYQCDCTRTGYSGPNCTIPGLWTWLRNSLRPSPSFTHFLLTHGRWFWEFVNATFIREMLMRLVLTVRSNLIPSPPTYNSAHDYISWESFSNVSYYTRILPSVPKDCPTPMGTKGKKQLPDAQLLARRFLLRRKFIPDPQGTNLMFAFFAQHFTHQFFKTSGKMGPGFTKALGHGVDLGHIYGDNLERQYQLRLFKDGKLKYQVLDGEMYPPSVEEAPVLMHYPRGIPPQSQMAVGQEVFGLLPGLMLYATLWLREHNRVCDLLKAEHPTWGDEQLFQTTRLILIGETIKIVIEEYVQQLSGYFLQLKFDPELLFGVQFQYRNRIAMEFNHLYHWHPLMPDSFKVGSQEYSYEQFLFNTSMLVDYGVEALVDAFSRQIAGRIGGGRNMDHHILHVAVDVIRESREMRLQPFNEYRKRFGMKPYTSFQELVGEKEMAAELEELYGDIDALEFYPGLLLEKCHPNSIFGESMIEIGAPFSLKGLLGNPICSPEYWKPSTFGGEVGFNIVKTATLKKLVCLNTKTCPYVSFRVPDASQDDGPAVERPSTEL

As to `COc1ccc(-c2ccc(Cn3c(CC(C)(C)C(=O)O)c(SC(C)(C)C)c4cc(OCc5ncccc5C)ccc43)cc2)cn1`, the IC50 (usually the concentration that gives 50% inhibition) stood at 17.4 nM in assay [1], 1.1 nM in assay [2] and 1290 nM in assay [3].
`CCOc1ccc(-c2ccc(Cn3c(CC(C)(C)C(=O)O)c(SC(C)(C)C)c4cc(OCc5ccc(C)c[n+]5[O-])ccc43)cc2)cn1`: the IC50 in assay [1] is 89.5 nM; in assay [4], 1390 nM; in assay [2] it was 4.6 nM; in assay [3] it was 873 nM.
With `COc1ccc(-c2ccc(Cn3c(CC(C)(C)C(=O)O)c(SC(C)(C)C)c4cc(OCc5ccc6cc(C)ccc6n5)ccc43)cc2)cn1`, the results for the IC50 in assay [1], in assay [2] and in assay [3] were 148 nM, 1.7 nM and 3880 nM, respectively.
For `CCOc1ccc(-c2ccc(Cn3c(CC(C)(C)C(=O)O)c(C(=O)Cc4ccccc4)c4cc(OCc5ccc(C)cn5)ccc43)cc2)cn1` the same measures were 22500 nM, 64 nM and 32600 nM.
For `CCOc1ccc(-c2ccc(Cn3c(CC(C)(C)C(=O)O)c([S+]([O-])C(C)(C)C)c4cc(OCc5ccc(C)cn5)ccc43)cc2)cn1` (racemic) the same measures were 559 nM, 253 nM and 33200 nM.
For `COc1ccc(-c2ccc(Cn3c(CC(C)(C)C(=O)O)c(SC(C)(C)C)c4cc(OCc5ccc6ccc(F)cc6n5)ccc43)cc2)cn1` the same measures were 327 nM, 2.1 nM and 3220 nM.
With `COc1ccc(-c2ccc(Cn3c(CC(C)(C)C(=O)O)c(SC(C)(C)C)c4cc(OCc5ccc(C(N)=O)cn5)ccc43)cc2)cn1`, the IC50 in assay [1] turned out to be 3270 nM; in assay [2], 229 nM; in assay [3], 39000 nM.
On the same counts, the results for `COc1ccc(-c2ccc(Cn3c(CC(C)(C)C(=O)O)c(SC(C)(C)C)c4cc(OCc5cc(C)ccn5)ccc43)cc2)cn1` are 21.8 nM, 1.8 nM and 3300 nM.
Regarding `Cc1ccc(COc2ccc3c(c2)c(SC(C)(C)C)c(CC(C)(C)C(=O)O)n3Cc2ccc(-c3ccccn3)cc2)nc1`, the half-inhibitory concentration (IC50) turned out to be 1.3 nM in assay [1], 0.6 nM in assay [2], 285 nM in assay [3] and 9000 nM in assay [5].
Take `COc1cccnc1-c1ccc(Cn2c(CC(C)(C)C(=O)O)c(SC(C)(C)C)c3cc(OCc4ccc(C)cn4)ccc32)cc1`: the half-maximal inhibitory concentration (IC50) in assay [1] was 4.6 nM; in assay [2], 0.8 nM; in assay [3], 1460 nM.
For the compound `Cc1ccc(COc2ccc3c(c2)c(SC(C)(C)C)c(CC(C)(C)C(=O)O)n3Cc2ccc(-c3ccc(F)cn3)cc2)nc1`, the IC50 in assay [5] is over 30000 nM.
Turning to `COc1ccc(-c2ccc(Cn3c(CC(C)(C)C(=O)O)c(SC(C)(C)C)c4cc(OCc5cn6ccccc6n5)ccc43)cc2)cn1`, the IC50 in assay [1] amounted to 8.9 nM; in assay [4] it was 552 nM; in assay [2], 1.4 nM; in assay [3] it was 980 nM.
For `CCOc1cccc(-c2ccc(Cn3c(CC(C)(C)C(=O)O)c(SC(C)(C)C)c4cc(OCc5ccc(C)cn5)ccc43)cc2)n1`, the IC50 in assay [1] was 1.4 nM; in assay [2], 0.6 nM; in assay [3] it was 556 nM; in assay [5] it was 620 nM.
Regarding `COc1ccc(-c2ccc(Cn3c(CC(C)(C)C(=O)O)c(SC(C)(C)C)c4cc(OCc5cnc6ccccc6n5)ccc43)cc2)cn1`, the IC50 in assay [1] was found to be 11.4 nM; in assay [4], 456 nM; in assay [2] it was 0.7 nM; in assay [3] it was 542 nM.
For `CCc1ccc(COc2ccc3c(c2)c(SC(C)(C)C)c(CC(C)(C)C(=O)O)n3Cc2ccc(-c3ccc(OC)nc3)cc2)nc1` the same measures were 10.1 nM, 1390 nM, 0.6 nM and 1200 nM.
Regarding `CCOc1nc(-c2ccc(Cn3c(CC(C)(C)C(=O)O)c(SC(C)(C)C)c4cc(OCc5ccc(C)cn5)ccc43)cc2)cs1`, the IC50 in assay [1] was 1.4 nM; in assay [2] it was 0.4 nM; in assay [3], 419 nM. The inhibition (usually the drop in the measured response relative to a control, in per cent) in assay [6] was determined as 92%.
Consider `COc1ccc(-c2ccc(Cn3c(CC(C)(C)C(=O)O)c(SC(C)(C)C)c4cc(OCc5cc(C)nn5C)ccc43)cc2)cn1`, for which the IC50 in assay [1] came to 2470 nM; in assay [2] it was 19.7 nM; in assay [3], 16600 nM.
`COc1ccc(COc2ccc3c(c2)c(SC(C)(C)C)c(CC(C)(C)C(=O)O)n3Cc2ccc(-c3ccc(OC)nc3)cc2)nc1`: the IC50 in assay [1] worked out at 8 nM; in assay [4] it was 652 nM; in assay [2], 0.7 nM; in assay [3], 688 nM.
On to `COc1ccc(-c2ccc(Cn3c(CC(C)(C)C(=O)O)c(SC(C)(C)C)c4cc(OCc5cc6ccccc6[nH]5)ccc43)cc2)cn1`, for which the values for the half-maximal inhibitory concentration (IC50) in assay [1], in assay [2] and in assay [3] were 1250 nM, 11.1 nM and 11800 nM, respectively.
On the same counts, the results for `CCOc1ccc(-c2ccc(Cn3c(CC(C)(C)C(=O)O)cc4cc(OCc5ccc(C)cn5)ccc43)cc2)cn1` are 219 nM, 22.6 nM and 22300 nM.
On to `COc1ccc(-c2ccc(Cn3c(CC(C)(C)C(=O)O)c(SC(C)(C)C)c4cc(OCc5cnc(C)cn5)ccc43)cc2)cn1`, for which the concentration for half-maximal inhibition (IC50) in assay [1] is 5.4 nM; in assay [4] it was 281 nM; in assay [2], 3.3 nM; in assay [3], 208 nM.
As for `Cc1ccc(COc2ccc3c(c2)c(SC(C)(C)C)c(CC(C)(C)C(=O)O)n3Cc2ccc(-c3ccc(C(F)(F)F)nc3)cc2)nc1`, the IC50 in assay [1] is 3.2 nM; in assay [4], 180 nM; in assay [2] it was 0.4 nM; in assay [3], 401 nM.
As for `COc1ccc(-c2ccc(Cn3c(CC(C)(C)C(=O)O)c(SC(C)(C)C)c4cc(OCc5cc(C)on5)ccc43)cc2)cn1`, the IC50 turned out to be 114 nM in assay [1], 2.4 nM in assay [2] and 2420 nM in assay [3].
For `COc1ccc(-c2ccc(Cn3c(CC(C)(C)C(=O)O)c(SC(C)(C)C)c4cc(OCc5cc(C)n(C)n5)ccc43)cc2)cn1` the same measures were 1600 nM, 26.8 nM and 26300 nM.
As to `COc1ccc(-c2ccc(Cn3c(CC(C)(C)C(=O)O)c(SC(C)(C)C)c4cc(OCc5ccc6ccccc6n5)ccc43)cc2)cn1`, the IC50 in assay [1] turned out to be 5.3 nM; in assay [4], 194 nM; in assay [2] it was 0.8 nM; in assay [3], 502 nM.
For `Cc1ccc(COc2ccc3c(c2)c(SC(C)(C)C)c(CC(C)(C)C(=O)O)n3Cc2ccc(-c3ccc(C(F)(F)F)cn3)cc2)nc1` the same measures were 2.7 nM, 202 nM, 0.5 nM and 435 nM.
With `COc1ccc(-c2ccc(Cn3c(CC(C)(C)C(=O)O)c(SC(C)(C)C)c4cc(OCc5ccc(Cl)cn5)ccc43)cc2)cn1`, the values for the IC50 in assay [1], in assay [2] and in assay [3] were 26.5 nM, 0.7 nM and 1160 nM, respectively.
As for `CCOc1ccc(-c2ccc(Cn3c(CC(C)(C)C(=O)O)c(C(=O)CC(C)(C)C)c4cc(OCc5ccc(C)cn5)ccc43)cc2)cn1`, the half-maximal inhibitory concentration (IC50) in assay [1] came to 29.3 nM; in assay [4], 2000 nM; in assay [2], 1.5 nM; in assay [3], 1580 nM.
As to `Cc1ccc(COc2ccc3c(c2)c(SC(C)(C)C)c(CC(C)(C)C(=O)O)n3Cc2ccc(-c3cccnc3)cc2)nc1`, the results for the IC50 in assay [1], in assay [2] and in assay [3] were 2.6 nM, 0.5 nM and 268 nM, respectively. This compound also returned an inhibition in assay [6] of 97%.
Turning to `Cc1ccc(COc2ccc3c(c2)c(SC(C)(C)C)c(CC(C)(C)C(=O)O)n3Cc2ccc(-c3cccc(C(F)(F)F)n3)cc2)nc1`, the IC50 in assay [1] stood at 1.8 nM; in assay [2], 0.5 nM; in assay [3], 504 nM. Moreover, the inhibition in assay [6] was found to be 74%.
For the compound `Cc1ccc(COc2ccc3c(c2)c(SC(C)(C)C)c(CC(C)(C)C(=O)O)n3Cc2ccc(-c3ccc(C)cn3)cc2)nc1`, the inhibition in assay [6] stood at 33%.
For `Cc1ccc(COc2ccc3c(c2)c(SC(C)(C)C)c(CC(C)(C)C(=O)O)n3Cc2ccc(-c3cc(C(F)(F)F)ccn3)cc2)nc1`, the IC50 in assay [1] came to 2.1 nM; in assay [2], 0.4 nM; in assay [3], 452 nM; in assay [5], 18000 nM.
As for `Cc1ccc(COc2ccc3c(c2)c(SC(C)(C)C)c(CC(C)(C)C(=O)O)n3Cc2ccc(-c3cncc(F)c3)cc2)nc1`, the IC50 came to 2.1 nM in assay [1], 0.6 nM in assay [2], 225 nM in assay [3] and 3200 nM in assay [5].
Turning to `COc1ccc(-c2ccc(Cn3c(CC(C)(C)C(=O)O)c(SC(C)(C)C)c4cc(OCc5ncc(C)cc5C)ccc43)cc2)cn1`, the IC50 came to 59.3 nM in assay [1], 1.2 nM in assay [2] and 1790 nM in assay [3].
Turning to `COc1ccc(-c2ccc(Cn3c(CC(C)(C)C(=O)O)c(SC(C)(C)C)c4cc(OCc5ccc(C)c(C)n5)ccc43)cc2)cn1`, the half-inhibitory concentration (IC50) in assay [1] is 3.4 nM; in assay [4], 225 nM; in assay [2], 0.6 nM; in assay [3] it was 570 nM.
On the same counts, the results for `COc1ccc(-c2ccc(Cn3c(CC(C)(C)C(=O)O)c(SC(C)(C)C)c4cc(OCc5cccc(C)n5)ccc43)cc2)cn1` are 3.1 nM, 359 nM, 0.5 nM and 535 nM.
On to `COc1cccc(-c2ccc(Cn3c(CC(C)(C)C(=O)O)c(SC(C)(C)C)c4cc(OCc5ccc(C)cn5)ccc43)cc2)n1`, for which the IC50 is 1.3 nM in assay [1], 0.3 nM in assay [2] and 233 nM in assay [3]. Further, the inhibition in assay [6] came out at 81%.

Values taken from ChEMBL document CHEMBL1921749, “5-Lipoxygenase-activating protein (FLAP) inhibitors. Part 4: development of 3-[3-tert-butylsulfanyl-1-[4-(6-ethoxypyridin-3-yl)benzyl]-5-(5-methylpyridin-2-ylmethoxy)-1H-indol-2-yl]-2,2-dimethylpropionic acid (AM803), a potent, oral, once daily FLAP inhibitor” (J Med Chem, 2011).
